Measurements published in patent US20260026499A1 (priority 2022, published 2026).
Values after ≈ are worked out from the molar mass of the structure shown.

Tested on: tebuconazole-resistant Fusarium graminearum (TR)
Assay: microbe, parasite or virus in culture
Format: cell-based
Settings: for EC50: Fusarium graminearum, 72 h; for ATI: ZJS178 as standard reagent, TR strain

| SMILES | EC50 [µg/mL] | ATI |
| --- | --- | --- |
| CCOC(=O)/C(C#N)=C(\N)c1ccc(N(C)CC)cc1 [ZJS178 (A), ethyl 2-cyano-3-amino-3-[4-(N-ethyl-N-methylamino)phenyl]acrylate] | 0.0356 (≈ 0.13 µM) | 100.00 |
| CC(C)(C)C(O)(CCc1ccc(Cl)cc1)Cn1cncn1 (racemic) [Tebuconazole (B), (RS)-1-p-chlorophenyl-4,4-dimethyl-3-(1H-1,2,4-triazol-1-ylmethyl)pentan-3-ol, reference compound] | 1.52 (≈ 4.95 µM) | 2.34 |
